According to US10064814B2, “Use of spider venoms for skin whitening/depigmenting and composition comprising spider venoms molecules or synthetic analogs” (priority 2012, dated 2018):
pIC50: −log10 of the molar value. “Also recorded” adds a separate entry of the source. Read-outs that look alike come from different tables or passages of the source.

Assays:
[1] = test system: B16F10 cells; experiment: Measurement of melanin content in B16F10 melanoma cells (melanogenesis assay); type: cell-based, murine; conditions: for pIC50: read-out: IC50 melanogenesis (melanin released in the medium)
Protocol: (§1) B16F10 were obtained from the American Type Culture Collection (ATCC CRL-6475, Manassas, Va., USA). Cells were cultured in Dulbecco's Modified Eagle Medium (DMEM) supplemented by 10% heat-inactivated foetal bovine serum (FBS, LONZA ltd., Basel, Switzerland) and penicillin/streptomycin (50 μg/ml) in a humidified atmosphere containing 5% CO2 at 37° C.
Determination of the extracellular melanin is considered as an index of melanogenesis. B16F10 cells were cultured in 24-well plate (5.10^4 cells/well) in a phenol red free medium and stimulated with 100 nM of α-MSH. […] To quantify the amount of melanin released in the medium, the absorbance of 200 μl of supernatant was read at 405 nm. The values were normalized by the measurement of total protein level present in each well.
Cells were washed with PBS1X and dissolved in 200 μl of NaOH 1N for 1 h at 60° C. The lysate was then centrifuged and the protein content determined by the Folin Lowry method, using the DC protein Assay kit from BIO-RAD (Marnes-la-Coquette, France). The absorbance is read at […].
B16F10 are murine melanoma cells, a cell line able to produce melanin and considered as an accurate model to assess melanogenesis inhibition. Cells were seeded at 5.10^4 cells/well in a P24 well plate and stimulated by 100 nM of α-MSH, the melanin-stimulating hormone. […] 48 h later, according to […] & EBERLE (Analytical Biochemistry, vol. 159(1), p: 191-7, 1986), the amount of melanin released in the medium was spectrophotometrically measured at 405 nm and normalised to the protein content.

[2] = molecular target: mushroom tyrosinase (DOPA oxidase activity) (Agaricus bisporus, UniProt C7FF04); experiment: DOPA oxidase inhibiting activity by spectrophotometry (mushroom tyrosinase assay); type: biochemical; conditions: FIG. 12
Protocol: (§2) Mushroom (Agaricus bisporus) tyrosinase (SIGMA-ALDRICH, T3824) has both DHICA oxidase and DOPA oxidase activity ([…] et al, Pigment Cell Res., vol. 12(2), p: 118-25, 1999).
The effect of different spider venoms on the DOPA oxidase activity was measured spectrophotometrically. The DOPA oxidase activity was determined using L-DOPA as substrate at 0.2 mM. The amount of DOPA chrome (red pigment) formed was measured against blank at 475 nm. The percentage of DOPA oxidase inhibition was obtained from: Inhibition percentage=[…]
With: • A: Absorbance at 475 nm of the reaction medium+inhibitor sample solution with enzyme • B: Absorbance at 475 nm of the reaction medium+inhibitor sample solution without enzyme (blank) • C: Absorbance at 475 nm of the reaction medium enzyme without inhibitor sample solution • D: Absorbance at 475 nm of the reaction medium without both enzyme and inhibitor sample solution […]
For the DOPA activity assay: 500 μL of the L-DOPA solution at 0.4 mM is mixed with different volumes according to the different natural inhibitors at 10 mg/mL, and 5 μL of the mushroom tyrosinase solution (added last to initiate the enzymatic reaction and must be kept in ice). […] The absorbance is measured at 475 nm every minute for 15 min using a UV-VIS spectrophotometer BIOMATE 5®. […]

[3] = test system: TRP1; experiment: Western blot analysis of TRP1 expression; type: cell-based, murine; conditions: α-MSH stimulated B16F10 cells, FIG. 16
Protocol: Cells were seeded at 1.10^6 cells/dish and cultivated in n-dish as previously described. After trypsination, the pelled were homogenized in a solution containing Sodium Dodecyl Sulphate (SDS) and were boiled 5 min at 96° C. to denature the proteins. Protein extracts were separated via a 10% SDS-PAGE for 1 h at 200 V and transferred onto a polyvinylidene difluoride membrane (GE healthcare Europe, Vélizy-villacoublay, France). The membranes were blocked overnight with 5% non-fat skim milk in a Tris-buffered saline solution containing 0.1% Tween. Membranes were incubated for 1 h at 37° C. with specific antibody against tyrosinase, TRP1 or MITF (C-19; G-17; N-15, 1:200 for Tyrosinase and TRP1 and 1:100 for MITF, Santa Cruz, Heidelberg, Germany) and actin as a control (C-11, 1:200, Santa Cruz). Membranes were incubated with secondary antibody coupled to horseradish peroxidase (HRP) for 2 h at room temperature (anti-goat 1:2500 for tyrosinase, TRP1 and MITF (ab 97120, Abcam, Paris, France) and anti-rabbit 1:2500 for actin (NA 934V, GE Healthcare)). […] Pre-stained protein markers were used for molecular weight.
To explore the mechanism of action of Argiotoxin in melanogenesis processes, we assess its ability to regulate the protein expression of two enzymes, the tyrosinase and TRP1 which is implicated in the biosynthesis of black/brown pigments specifically. […]

[4] = test system: tyrosinase; type: cell-based, murine; conditions: α-MSH stimulated B16F10 cells, FIG. 16
Protocol: Western blot analyses were performed on B16F10 cells treated as previously described.

[5] = test system: B16F10 cells; experiment: LDH cell-based assay (cytotoxicity); design: species or system murine; conditions: 42.1 μM
[6] = test system: B16F10 cells; experiment: Cell viability assay (MTT); type: cell-based, murine; conditions: 42.1 μM
Protocol: as §1
The evaluation of B16F10 cells survival relies on the reduction of the tetrazolium ring of water soluble MTT (3-[4,5-dimethylthiazol-2-yl]-2,5-diphenyltetrazolium bromide; Sigma Aldrich) into insoluble purple formazan crystals by the mitochondrial succinate dehydrogenase enzyme. The production of formazan directly reflects the number of living […] cells. B16F10 cells were seeded at 25000 per well in a 96-well plate and incubated in standard culture condition. […] Then, the supernatant was removed and replace by 50 μl of 0.5 mg/ml of MTT solution. The cells were exposed to MTT for 2 h. Finally, each well was washed by PBS1X and the crystals contained in wells are solubilized by adding 100 μl of DMSO. After briefly shaked the plate, the absorbance is measured at 600 nm.

[7] = test system: mushroom tyrosinase (DHICA oxidase activity); experiment: DHICA oxidase-inhibiting activity by MBTH assay; type: biochemical, Agaricus bisporus; conditions: DHICA substrate 0.25 mM
Protocol: as §2
DHICA is used as substrate at 0.25 mM. MBTH was obtained from Alfa Aesar and DHICA was prepared according to […] & ITO, (Anal. Biochem., vol. 170(2), p: 335-40, 1988). Here, the MBTH method was used. This method consists to visualize the production of hydrazone-quinone adduct by spectrophotometry. The principle is that MBTH captures the indole-quinone which was generated by the oxidation of dihydroxyindole compounds. DHICA is converted to indole-5,6-quinone-2-carboxylic acid by the DHICA oxidase activity of mushroom tyrosinase, the indole product is trapped by MBTH and the complex formation can be detected at 492 nm (OLIVARES et al, Biochem. J., vol. 354, p: 131-139, 2001). • c) The DHICA oxidase inhibiting activity using mushroom tyrosinase was assayed in vitro. The procedure is the same as described by WINDER & HARRIS (Eur. J. Biochem., vol. 198(2), p: 317-26, 1991) for DOPA oxidase with minor modifications. Purification of the fractions
The experimental conditions are the same as previously mentioned. DHICA was used as substrate at 0.25 mM.

Sequence of mushroom tyrosinase (DOPA oxidase activity) (C7FF04 1-392): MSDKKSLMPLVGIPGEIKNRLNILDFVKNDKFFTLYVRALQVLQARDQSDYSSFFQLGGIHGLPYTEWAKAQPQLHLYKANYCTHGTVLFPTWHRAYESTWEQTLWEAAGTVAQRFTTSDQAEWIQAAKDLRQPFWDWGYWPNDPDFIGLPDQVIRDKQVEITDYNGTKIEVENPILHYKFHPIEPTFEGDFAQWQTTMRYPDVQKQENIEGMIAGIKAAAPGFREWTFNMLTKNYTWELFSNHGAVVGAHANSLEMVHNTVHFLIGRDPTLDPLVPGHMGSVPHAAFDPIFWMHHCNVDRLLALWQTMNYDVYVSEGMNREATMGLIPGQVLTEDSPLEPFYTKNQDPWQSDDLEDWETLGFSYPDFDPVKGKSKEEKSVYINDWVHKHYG
Sequence of mushroom tyrosinase (DOPA oxidase activity) (G1K3P4 1-150 partner): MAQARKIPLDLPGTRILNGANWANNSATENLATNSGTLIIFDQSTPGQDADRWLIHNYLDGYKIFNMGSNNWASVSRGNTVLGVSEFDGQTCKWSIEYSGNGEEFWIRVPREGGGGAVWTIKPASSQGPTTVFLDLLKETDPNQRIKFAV

SMILES: O=C(O)Cc1ccc(O)cc1O [2,4-DHPAA]
- pIC50 ([1]; B16F10, 100 nM α-MSH, 48 h treatment): ~5.30
- pIC50 [2]: ~2.22
- type of inhibition of DOPA oxidase activity ([2]; suggested from dose-response): competitive inhibitor

SMILES: N=C(N)NCCC[C@H](N)C(=O)NCCCNCCCNCCCCCNC(=O)[C@H](CC(N)=O)NC(=O)Cc1ccc(O)cc1O [Argiotoxin, Argiotoxin-636]
- expression of TRP1 protein [3]: significant inhibition
- fold higher activity on the cellular assay compared with DHPA ([1]; B16F10 melanogenesis): 100 fold
- pIC50 ([1]; Mus musculus, B16-F10, 48 h): ~8.00
- expression of tyrosinase protein [4]: significant inhibition
- cytotoxicity (LDH) [5]: neither cell death nor cytotoxicity
- cell death (MTT) [6]: neither cell death nor cytotoxicity
- inhibition of DHICA oxidase activity [7]: dose-dependent inhibition is visible up to 100 μM; also recorded: dose-dependent manner up to 75 μM

SMILES: O=c1cc(CO)occ1O [Kojic acid, Kojic Acid, reference compound]
- expression of TRP1 protein [3]: faintly decreases
- pIC50 ([1]; Mus musculus, B16-F10, B16F10, 100 nM α-MSH, 48 h treatment): ~5.30
